# From PubChem BioAssay (NCI)
# “And” between values parts separate entries of the source, which are not always exact repeats. Identical values can stand only once.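 Five compound concentrations were applied to cells in 96-well plates for 48 hours; endpoints were derived by simple linear interpolation of the resulting dose-response curve. GI50 is the concentration that inhibits growth by half. At the TGI there is no net growth.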
# How the values were obtained:
# Assay in all cases: growth of human tumour cells (NCI), 48 h
# IGROV1 ovarian = tested on: IGROV1 ovarian
# SNB-75 CNS = tested on: SNB-75 CNS
# A498 renal = tested on: A498 renal
# ACHN renal = tested on: ACHN renal
# SF-268 CNS = tested on: SF-268 CNS
# SN12C renal = tested on: SN12C renal
# MDA-MB-231 breast = tested on: MDA-MB-231 breast
# MCF7 breast = tested on: MCF7 breast
# HL-60(TB) leukemia = tested on: HL-60(TB) leukemia
# SR leukemia = tested on: SR leukemia
Compound,GI50 (IGROV1 ovarian) [µM],TGI (IGROV1 ovarian),GI50 (SNB-75 CNS) [µM],TGI (SNB-75 CNS),GI50 (A498 renal) [µM],TGI (A498 renal),GI50 (ACHN renal) [µM],TGI (ACHN renal) [µM],GI50 (SF-268 CNS) [µM],TGI (SF-268 CNS) [µM],GI50 (SN12C renal) [µM],TGI (SN12C renal) [µM],GI50 (MDA-MB-231 breast) [µM],TGI (MDA-MB-231 breast) [µM],GI50 (MCF7 breast) [µM],TGI (MCF7 breast) [µM],GI50 (HL-60(TB) leukemia) [µM],TGI (HL-60(TB) leukemia) [µM],GI50 (SR leukemia) [µM],TGI (SR leukemia) [µM]
CCOC(=O)C1=C(C)N(Cc2ccc(Cl)cc2Cl)C2(O)C=CC(=O)C3=C(O)c4ccccc4C(=O)C312 (stereo unspecified),8.62,> 100 µM,16.9,> 100 µM,23.7,59.4 µM,3.82,18.2,6.72,37.5,3.39,15.4,3.96,12.8,2.65,40.1,,,,
C=C(CO)[C@@H]1CC[C@]2(COC3CCCCO3)CC[C@]3(C)[C@H](CC[C@@H]4[C@@]5(C)C=C(C=O)C(=O)C(C)(C)[C@@H]5CC[C@]43C)[C@@H]12 (stereo partly specified),0.231,0.515 µM,0.206,0.625 µM,0.234,0.938 µM,0.21,0.488,0.297,0.979,0.228,0.671,0.214,0.565,0.479,1.97,0.25,0.994,,
CSc1snc2sc3c(Cl)nnnc3c12,,37.3 µM,,23.7 µM,,28.7 µM,,23.3,,33.2,,28.7,,,,,,,,
O=C(Nc1cccc(-c2ccc(Cl)c(C(F)(F)F)c2)c1)C1CCN(Cc2cccc3cccnc23)CC1,1.55,2.99 µM,1.39,2.71 µM,1.33,2.65 µM,1.76,3.14,1.79,3.55,1.6,3.03,1.84,3.41,1.44,2.95,,,1.52,4.49
Cc1cccc(C(C)(C)C)c1NC(=O)CCc1nc(=S)[nH][nH]1,,> 100 µM,,> 100 µM,,> 100 µM,,> 100,,> 100,,> 100,,,,,,> 100,,
CCOC(=O)c1cnc2c(ccc3ncccc32)c1NCCCN(CC)CC,,> 100 µM,,,,> 100 µM,,> 100,,> 100,,,,,,,,38.4,,
CC(=O)O[C@@]1(C)[C@@H](C)C(=O)O[C@@H]2CCN3CC=C(COC(=O)[C@]1(C)O)[C@H]23,,> 100 µM,,> 100 µM,,,,> 100,,> 100,,,,,,,,> 100,,> 100
CC(C)(C)c1ccc(OCCOCCOc2ccc(C(C)(C)C)cc2S(=O)(=O)Nc2ccc([N+](=O)[O-])cc2)c(S(=O)(=O)Nc2ccc([N+](=O)[O-])cc2)c1,,> 100 µM,,> 100 µM,,90.9 µM,,> 100,,> 100,,> 100,,,,,,> 100,,
O=C(O/N=C1/CCC/C1=C\c1ccccc1)c1ccc(Cl)c(Cl)c1,,> 100 µM,,> 100 µM,,> 100 µM,,> 100,,> 100,,> 100,,,,,,> 100,,> 100
Nc1ccc(-c2cccs2)cc1NC(=O)c1ccc(CCCC(=O)Nc2ccc(C3CC3N)cc2)cc1 (stereo unspecified),4.8,> 100 µM,1.65,4.27 µM,20.4,92 µM,,,2.33,5.47,,,,,,,2.54,> 100,,
Oc1c(Cl)cc(Cl)cc1C(c1cc(Cl)cc(Cl)c1O)C(Cl)(Cl)Cl,,,3.75,17.4 µM,1.68,5.77 µM,2.82,12,2.34,13.8,1.78,13.7,1.59,4.81,2.7,14.2,3.25,10.3,,
Cc1cn2c(/C=N/N=C(N)N)c(-c3ccccn3)nc2s1,16,> 100 µM,7.66,19.3 µM,17.8,34 µM,21.8,51.7,8.62,45.4,14.7,29.5,17.2,39.6,10.2,> 68.2,4.56,> 100,,
O=C1C2C(C(=O)N1c1ccccc1)C1([N+](=O)[O-])C=C3c4ccccc4N(C(=O)c4ccccc4)C32C2C(=O)N(c3ccccc3)C(=O)C21 (stereo unspecified),,> 100 µM,,> 100 µM,,> 100 µM,,> 100,,> 100,,> 100,,,,,,> 100,,> 100
COc1ccc2c3c(c(C(=O)c4ccccc4)oc13)CCC2,,> 100 µM,,> 100 µM,,> 100 µM,,> 100,,,,> 100,,,,,,> 100,,
CC([C@H]1CCC2C3CCC4C[C@@H](N)CC[C@]4(C)C3CC[C@@]21C)N(C)C (stereo partly specified),8.88,35 µM,8.15,24.9 µM,9.69,25.9 µM,8.99,21.6,3.34,11.7,8.17,25.7,5.72,16.5,4.17,18.1,5.55,13.2,,
COC(=O)C12OCC34C(CC5C(C)C6=CC(=O)OC6=CC5(C)C3C(O)C1O)OC(=O)C(O)C24 (stereo unspecified),0.17,0.436 µM and 1.41 µM,0.158,0.682 µM and 2.48 µM,0.266,0.507 µM and 1.49 µM,0.486,17.1,0.287,3.34,0.416,34.1,,,,,,4.27,,
CN(C)CCNc1c2ccccc2nc2oc3ccccc3c12,4.82,26 µM,12.5,25.8 µM,3.28,13.8 µM,4.48,25.8,5.81,27.7,5.66,34,6.47,27.2,4.07,16.1,3.53,25.2,,
NC1=NN(c2ccccc2)C(=O)C1C(=O)C(=O)Nc1nccs1 (stereo unspecified),,> 100 µM,,> 100 µM,,> 100 µM,,> 100,,> 100,,> 100,,,,,,> 100,,> 100
